Laboratory results reported in US20140024716A1, “Composition Comprising S-Allyl-L-Cysteine as Active Ingredient for Preventing or Treating Gastrointestinal Disorders” (PHARMAKING CO., LTD., priority 2009, published 2014).
“Also recorded” adds a separate entry of the source. Like-named read-outs stand apart in the source and are kept apart here.

Legend:
Helicobacter pylori = assay: Serologic parameters (GOT, GPT) in Helicobacter pylori-infected mouse model; format: in vivo, C57BL/6 mice; conditions: SAC1 and SAC2 groups
Protocol: 8-week old male C57BL/6 mice were classified into 4 groups, i.e., a positive control group (to which Helicobacter pylori was administered; PC), a negative control group (to which saline was administered; NC), experimental group 1 (to which Helicobacter pylori and 200 mg/kg of SAC were administered; SAC1), and experimental group 2 (to which Helicobacter pylori and 400 mg/kg of SAC were administered; SAC2). Each group had 10 mice. White powdered SAC was diluted in tap water to concentrations of 20 mg/mL and 40 mg/mL and 10 μl/g (body weight) of the diluted SAC was orally administered to the mice of the SAC1 and SAC2 groups three times a week for 10 weeks. The mice were given free access to tap water for the entire test period. The Helicobacter pylori was collected with saline to a concentration of 1×10^9 CFU/mL, and 0.2 mL of the diluted Helicobacter pylori was orally administered to each mouse for 8 weeks from 2 weeks after SAC administration. The mice were fasted for 8 hours before the infection, and 0.15 mL of 0.2 M sodium bicarbonate (NaHCO3) was administered to each mouse 10 minutes before the administration of Helicobacter pylori in order to neutralize acidified stomach due to the fasting. The same amount of saline instead of the infectious substances was administered into the NC group. The mice of all groups were fed with a normal diet. […]

[1] = General observation (death, weight) of rats in gastric lesion tests; format: in vivo, Sprague-Dawley rats
Protocol: 7 to 8-week old male specific pathogen free (SPF) HsdKoat:Sprague-Dawley®™ SD®™rats (weight of 7-week old males was in the range of 208.44 to 227.39 g, and weight of 8-week old maleswas in the range of 223.85 to 245.03 g, purchased from Koatech, Co. Ltd., Gyunggido, Korea) were quarantined and acclimated in the Animal Lab for 7 days. The rats were bred at a temperature of 23 3° C., at a relative humidity of 55 15%, with light for 12 hours (light turned on at 08:00 and light turned off at 20:00) while air was ventilated 10 to 20 times/hr in the Animal Experiment Lab of Gyeonggi Bio-Center. Other environments for breeding which might influence the test for the entire test period were not considered for use. The rats were given free access to a solid laboratory diet (Harlan Co. Ltd., USA. Teklad certified global 18% protein rodent diet, 2918C) that was supplied by Folas International. […] The rats were given free access to tap water that was sterilized using a UV sterilizer and a micro filter with water bottles. […]

Cu/Zn-SOD = assay: Serum Cu/Zn-SOD level in Helicobacter pylori infection model; format: in vivo, C57BL/6 mice; conditions: for Cu/Zn-SOD level greater than that of the PC group by: serum
Protocol: 8-week old male C57BL/6 mice were classified into 4 groups, i.e., a positive control group (to which Helicobacter pylori was administered; PC), a negative control group (to which saline was administered; NC), experimental group 1 (to which Helicobacter pylori and 200 mg/kg of SAC were administered; SAC1), and experimental group 2 (to which Helicobacter pylori and 400 mg/kg of SAC were administered; SAC2). Each group had 10 mice. White powdered SAC was diluted in tap water to concentrations of 20 mg/mL and 40 mg/mL and 10 μl/g (body weight) of the diluted SAC was orally administered to the mice of the SAC1 and SAC2 groups three times a week for 10 weeks. The mice were given free access to tap water for the entire test period. The Helicobacter pylori was collected with saline to a concentration of 1×10^9 CFU/mL, and 0.2 mL of the diluted Helicobacter pylori was orally administered to each mouse for 8 weeks from 2 weeks after SAC administration. The mice were fasted for 8 hours before the infection, and 0.15 mL of 0.2 M sodium bicarbonate (NaHCO3) was administered to each mouse 10 minutes before the administration of Helicobacter pylori in order to neutralize acidified stomach due to the fasting. The same amount of saline instead of the infectious substances was administered into the NC group. The mice of all groups were fed with a normal diet. After a 10-week test period, autopsies were performed on all mice, and samples of blood and internal organs were collected for tissue pathological analyses. The test was performed according to the process of FIG. 19.
In this regard, a superoxide dismutase activity assay kit (BioVision, Mountain View, Calif., USA) was used. 20 μl of serum and 200 μl of a WST working solution as a substrate were mixed. 20 μl of an enzyme working solution was added thereto, and the mixture was maintained at 37° C. for 20 minutes. Absorbance was measured at 450 nm. A control reaction was conducted in the same manner as described above, except that 20 μl of distilled water was added thereto instead of serum. SOD activity (inhibition rate %) was calculated.

[2] = set-up: species or system C57BL/6 mice; conditions: mouse, in vivo
Protocol: S-allyl-L-Cysteine (SAC) was purchased from TCI Chemical Co. (Tokyo, Japan). Helicobacter pylori was American Type Culture Collection (ATCC) 43504 (cagA+, vacA s1-ml type) and cultured in a Mueller Hinton-Agar broth at 37° C. for 48 hours, under 5% CO2 microaerophilic conditions with a concentration of 1×10^9 CFU/ml.
8-week old male specific pathogen free (SPF) C57BL/6 mice were used. Weights of the mice were measured in the Animal Lab, Department of Pathology, the College of Veterinary Medicine, Kyungbook National University. Then, the mice were classified into 4 groups and bred such that average weights of each group are similar to each other. The mice were acclimated and bred in the Animal Lab, Department of Pathology, the College of Veterinary Medicine, Kyungbook National University at a temperature of 22±3° C., at a relative humidity of 50±10%, with light for 12 hours (light turned on at 08:00 and light turned off at 20:00) by an automatic temperature and humidity control system. Other environments for breeding which might influence the test for the entire test period were not considered for use. […]
Weights of male C57BL/6 mice infected with Helicobacter pylori ere measured three times a week for the entire 10-week test period to observe weight changes of the mice.

With `C=CCSC[C@H](N)C(=O)O` [SAC, S-allyl-L-cysteine] as the molecule, how does the “serum GPT level versus PC group” value (Helicobacter pylori; not significantly different) read?
The value was “less than that of the PC group; also recorded: less than the positive control group”.

What about the “serum GOT level versus PC group” value (Helicobacter pylori; not significantly different (p<0.08)) of the same molecule?
Its value is “less than that of the PC group; also recorded: less than the positive control group”.

And the “death and other changes” value ([1]; 100, 200, 400 mg/kg SAC oral single dose, rats)?
Its value is “No animals died and no other changes were observed”.

And the “significant weight change with respect to administration” value ([1]; 100, 200, 400 mg/kg SAC oral, entire test period)?
The value was “not observed”.

And the “Cu/Zn-SOD level greater than that of the PC group by” value (Cu/Zn-SOD; SAC1 group (200 mg/kg SAC))?
The value was “about 4%”.

And the “Cu/Zn-SOD level greater than that of the PC group by” value (Cu/Zn-SOD; SAC2 group (400 mg/kg SAC))?
The value was “about 3%”.

And the “serum Cu/Zn-SOD level versus positive control group” value (Cu/Zn-SOD; SAC-administered experimental group, dose not stated)?
The value was “higher than that of the positive control group”.

And the “weight increase rate less than the PC group by” value ([2]; 200 mg/kg)?
The value was 2%.

What about the “weight increase rate less than the PC group by” value ([2]; 400 mg/kg) of the same molecule?
Its value is 0.2%.
